Measured values published in patent US7803930B2, “Antisense modulation of apolipoprotein B-expression” (Isis Pharmaceuticals, Inc., priority 2002, dated 2010).
In the oligonucleotide strings, read from the 5' end, every base follows the letter of its sugar. An asterisk marks phosphorothioate; unmarked linkages are phosphodiester. Other units and linkages are bracketed, terminal groups are in braces. A string of capitals states the bases alone. e = 2'-O-(2-methoxyethyl) (MOE); [5mC] = 5-methylcytosine; d = 2'-deoxy (DNA)

Legend:
[1] = test system: mouse apolipoprotein B mRNA; assay: Inhibition of mouse apolipoprotein B mRNA levels in primary mouse hepatocytes, real-time PCR; type: cell-based; details: for % INHIB: Table 3, 150 nM, averages from two experiments
Procedure: Primary mouse hepatocytes were prepared from CD-1 mice purchased from Charles River Labs (Wilmington, Mass.) and were routinely cultured in Hepatoyte Attachment Media (Gibco) supplemented with 10% Fetal Bovine Serum (Gibco/Life Technologies, Gaithersburg, Md.), 250 nM dexamethasone (Sigma), and 10 nM bovine insulin (Sigma). Cells were seeded into 96-well plates (Falcon-Primaria #3872) at a density of 10000 cells/well for use in RT-PCR analysis.
When cells reached 80% confluency, they were treated with oligonucleotide. For cells grown in 96-well plates, wells were washed once with 200 μL OPTI-MEM™-1 reduced-serum medium (Gibco BRL) and then treated with 130 μL of OPTI-MEM™-1 containing 3.75 μg/mL LIPOFECTIN™ (Gibco BRL) and the desired concentration of oligonucleotide. After 4-7 hours of treatment, the medium was replaced with fresh medium. Cells were harvested 16-24 hours after oligonucleotide treatment.
Quantitation of apolipoprotein B mRNA levels was determined by real-time quantitative PCR using the ABI PRISM™ 7700 Sequence Detection System (PE-Applied Biosystems, Foster City, Calif.) according to manufacturer's instructions. This is a closed-tube, non-gel-based, fluorescence detection system which allows high-throughput quantitation of polymerase chain reaction (PCR) products in real-time. As opposed to standard PCR, in which amplification products are quantitated after the PCR is completed, products in real-time quantitative PCR are quantitated as they accumulate. This is accomplished by including in the PCR reaction an oligonucleotide probe that anneals specifically between the forward and reverse PCR primers, and contains two fluorescent dyes. A reporter dye (e.g., JOE, FAM, or VIC, obtained from either Operon Technologies Inc., Alameda, Calif. or PE-Applied Biosystems, Foster City, Calif.) is attached to the 5′ end of the probe and a quencher dye (e.g., TAMRA, obtained from either Operon Technologies Inc., Alameda, Calif. or PE-Applied Biosystems, Foster City, Calif.) is attached to the 3′ end of the probe. When the probe and dyes are intact, reporter dye emission is quenched by the proximity of the 3′ quencher dye. During amplification, annealing of the probe to the target sequence creates a substrate that can be cleaved by the 5′-exonuclease activity of Taq polymerase. […] With each cycle, additional reporter dye molecules are cleaved from their respective probes, and the fluorescence intensity is monitored at regular intervals by laser optics built into the ABI PRISM™ 7700 Sequence Detection System. In each assay, a series of parallel reactions containing serial dilutions of mRNA from untreated control samples generates a standard curve that is used to quantitate the percent inhibition after antisense oligonucleotide treatment of test samples.
Probes and primers to mouse apolipoprotein B were designed to hybridize to a mouse apolipoprotein B sequence, using published sequence information (GenBank accession number M35186, incorporated herein as SEQ ID NO: 10). For mouse apolipoprotein B the PCR primers were: forward primer: CGTGGGCTCCAGCATTCTA (SEQ ID NO: 11) reverse primer: […] (SEQ ID NO: 12) and the PCR probe was: FAM-[…]-TAMRA SEQ ID NO: 13) where FAM (PE-Applied Biosystems, Foster City, Calif.) is the fluorescent reporter dye) and TAMRA (PE-Applied Biosystems, Foster City, Calif.) is the quencher dye. For mouse GAPDH the PCR primers were: forward primer: […] (SEQ ID NO: 14) reverse primer: […] (SEQ ID NO:15) and the PCR probe was: 5′ JOE-[…]-TAMRA 3′ (SEQ ID NO: 16) where JOE (PE-Applied Biosystems, Foster City, Calif.) is the fluorescent reporter dye) and TAMRA (PE-Applied Biosystems, Foster City, Calif.) is the quencher dye.
In accordance with the present invention, a series of oligonucleotides was designed to target different regions of the mouse apolipoprotein B RNA, using published sequence (GenBank accession number M35186, incorporated herein as SEQ ID NO: 10). […]

[2] = LDLr(-/-) mice dose response (Example 44): liver enzyme, cholesterol and triglyceride levels; type: in vivo, mouse; details: 50 mg/kg i.p. twice a week, six weeks
Procedure: LDLr(−/−) mice, purchased from Taconic (Germantown, N.Y.) were used to evaluate antisense oligonucleotides for their potential to lower apolipoprotein B mRNA or protein levels, as well as phenotypic endpoints associated with apolipoprotein B. LDLr(−/−) mice were separated into groups of males and females. LDLr(−/−) mice were dosed intraperitoneally twice a week for six weeks with either 10, 25, or 50 mg/kg of ISIS 147764 (SEQ ID NO: 109) or ISIS 270906 (SEQ ID NO: 856) which is a 4 base mismatch of ISIS 147764, or with saline, or 20 mg/kg of Atorvastatin. At study termination animals were sacrificed and evaluated for several phenotypic markers.

[3] = test system: Cynomolgous monkey apolipoprotein B mRNA; assay: Apolipoprotein B mRNA in primary Cynomolgous monkey hepatocytes, real-time PCR; type: cell-based; details: for % Inhibition of apolipoprotein B mRNA: primary Cynomolgous monkey hepatocytes
Procedure: Antisense inhibition by ISIS 301012 was compared to that of ISIS 326358, which is a perfect match to the Cynomolgous monkey apolipoprotein B sequence to which ISIS 301012 hybridizes. The compounds were analyzed for their effect on Cynomolgous monkey apolipoprotein B mRNA levels in primary Cynomolgous monkey hepatocytes purchased from In Vitro Technologies ([…].). Pre-plated primary Cynonomolgous monkey hepatocytes were purchased from InVitro Technologies (Baltimore, Md.). Cells were cultured in high-glucose DMEM (Invitrogen Corporation, Carlsbad, Calif.) supplemented with 10% fetal bovine serum (Invitrogen Corporation, Carlsbad, Calif.), 100 units/mL and 100 μg/mL streptomycin (Invitrogen Corporation, Carlsbad, Calif.).
Primary Cynomolgous monkey hepatocytes were treated with 10, 50, 150 or 300 nM of antisense oligonucleotides for 48 hours. ISIS 113529 (SEQ ID NO: 859) was used as a control oligonucleotide. Untreated cells also served as a control. Cynomolgous monkey apolipoprotein B mRNA levels were quantitated by real-time PCR using the human apolipoprotein B and GAPDH primers and probes described by other examples herein. The results, shown in Table 44, are the average of 6 experiments and are expressed as percent inhibition of apolipoprotein B mRNA normalized to untreated control cells.
In a further embodiment of the invention, antisense inhibition by ISIS 281625 was compared to that by ISIS 315089, which is a perfect match to the Cynomolgous monkey apolipoprotein B sequence to which ISIS 281625 hybridizes. Primary Cynomolgous monkey hepatocytes, cultured as described herein, were treated with 10, 50, 150 or 300 nM of ISIS 315089 or ISIS 281625 for 24 hours. Cells were treated with the control oligonucleotide ISIS 13650 (SEQ ID NO: 806) at 150 and 300 nM or ISIS 113529 (SEQ ID NO: 859) at 300 nM. Untreated cells also served as a control. Cynomolgous monkey apolipoprotein B mRNA levels in primary Cynomolgous monkey hepatocytes was quantitated using real-time PCR with human primers and probe as described by other examples herein. The results, shown in Table 46, are the average of 3 experiments and are expressed as percent inhibition of apolipoprotein B mRNA normalized to untreated control cells.
ISIS 271009 (SEQ ID NO: 319) and ISIS 301027 (SEQ ID NO: 262) were also tested for their effects on apolipoprotein B mRNA and protein expression in Cynomolgous primary hepatoctyes. Cells, cultured as described herein, were treated with 10, 50 and 150 nM of ISIS 271009 or ISIS 301027 for 24 hours. Cells were treated with the control oligonucleotide ISIS 113529 (SEQ ID NO: 859) at 150 nM. Untreated cells also served as a control. Cynomolgous monkey apolipoprotein B mRNA levels in primary Cynomolgous monkey hepatocytes was quantitated using real-time PCR with human primers and probe as described by other examples herein. The results, shown in Table 48, are the average of 2 experiments and are expressed as percent inhibition of apolipoprotein B mRNA normalized to untreated control cells.

apolipoprotein B protein = assay: Apolipoprotein B protein secreted from primary Cynomolgous monkey hepatocytes, ELISA; type: cell-based; details: for % Reduction of monkey apolipoprotein B protein secretion / secretion of apolipoprotein B protein (ELISA): primary Cynomolgous hepatocytes; for % Reduction in secreted apolipoprotein B protein: primary Cynomolgous monkey hepatocytes
Procedure: Apolipoprotein B protein secreted from primary Cynomolgous hepatocytes treated with 150 and 300 nM of oligonucleotide was measured by ELISA using an apolipoprotein B protein specific kit (ALerCHEK Inc., Portland, Me.). Each result represents the average of 3 experiments.
Apolipoprotein B protein secreted primary Cynomolgous hepatocytes treated with 50 and 150 nM of ISIS 315089 and ISIS 281625 was measured by ELISA using an apolipoprotein B protein specific kit (ALerCHEK Inc., Portland, Me.). Each result represents the average of 3 experiments.
Apolipoprotein B protein secreted from primary Cynomolgous hepatocytes treated with 50 and 150 nM of ISIS 271009 and ISIS 301027 was measured by ELISA using an apolipoprotein B protein specific kit (ALerCHEK Inc., Portland, Me.). Each result represents the average of 3 experiments.

147773 (antisense e[5mC]*eA*eT*e[5mC]*eA*dG*dA*d[5mC]*dG*dT*dG*dA*dT*dG*dT*eT*e[5mC]*e[5mC]*e[5mC]*eT) [compound 147773]
% INHIB [1]: 85%

147774 (antisense eT*eG*eG*e[5mC]*eT*dA*dG*dT*dT*dT*d[5mC]*dA*dA*dT*d[5mC]*e[5mC]*e[5mC]*e[5mC]*eT*eT) [compound 147774]
% INHIB [1]: 84%

147775 (antisense e[5mC]*eT*eG*eT*e[5mC]*dA*dT*dG*dA*d[5mC]*dT*dG*d[5mC]*d[5mC]*d[5mC]*eT*eT*eT*eA*e[5mC]) [compound 147775]
% INHIB [1]: 52%

147776 (antisense eG*e[5mC]*eT*eT*eG*dA*dA*dG*dT*dT*d[5mC]*dA*dT*dT*dG*eA*eG*eA*eA*eT) [compound 147776]
% INHIB [1]: 92% | Percent Inhibition 50 nM ([1]; Table 4, 50 nM): 0% | Percent Inhibition 150 nM ([1]; Table 4, 150 nM): 17% | Percent Inhibition 300 nM ([1]; Table 4, 300 nM): 44%

147778 (antisense eT*e[5mC]*eA*eG*eA*dT*dA*dT*dA*d[5mC]*dA*dT*dT*dG*dG*e[5mC]*eT*eT*e[5mC]*eA) [compound 147778]
% INHIB [1]: 14%

270906 (antisense GTCCCTCAACATCTGAATGC; listed as DNA, chemistry not given here) [compound 270906]
Lipoproteins CHOL ([2]; female LDLr(-/-) mice): 564.6 mg/dL | Lipoproteins HDL ([2]; female LDLr(-/-) mice): 200.0 mg/dL | Lipoproteins LDL ([2]; female LDLr(-/-) mice): 310.0 mg/dL | Lipoproteins TRIG ([2]; female LDLr(-/-) mice): 240.4 mg/dL | Liver Enzymes ALT ([2]; female LDLr(-/-) mice): 88.6 IU/L | Liver Enzymes AST ([2]; female LDLr(-/-) mice): 96.0 IU/L | Lipoproteins CHOL ([2]; male LDLr(-/-) mice): 941.0 mg/dL | Lipoproteins HDL ([2]; male LDLr(-/-) mice): 244.2 mg/dL | Lipoproteins LDL ([2]; male LDLr(-/-) mice): 541.9 mg/dL | Lipoproteins TRIG ([2]; male LDLr(-/-) mice): 844.8 mg/dL | Liver Enzymes ALT ([2]; male LDLr(-/-) mice): 348.0 IU/L | Liver Enzymes AST ([2]; male LDLr(-/-) mice): 167.4 IU/L

315089 (antisense eA*eG*eA*eT*eT*dA*d[5mC]*d[5mC]*dA*dG*d[5mC]*d[5mC]*dA*dT*dA*eT*eG*e[5mC]*eA*eG) [compound 315089]
% Inhibition of apolipoprotein B mRNA ([3]; 10 nM, 24 hours (Table 46), "+" = expression increased): 70% | % Inhibition of apolipoprotein B mRNA ([3]; 50 nM, 24 hours (Table 46)): 83% | % Inhibition of apolipoprotein B mRNA ([3]; 150 nM, 24 hours (Table 46), "+" = expression increased): 81% | % Inhibition of apolipoprotein B mRNA ([3]; 300 nM, 24 hours (Table 46)): 82% | % Reduction of monkey apolipoprotein B protein secretion (apolipoprotein B protein; 50 nM (Table 47)): 11% | % Reduction of monkey apolipoprotein B protein secretion (apolipoprotein B protein; 150 nM (Table 47)): 25%

326358 (antisense eG*e[5mC]*e[5mC]*eT*e[5mC]*dA*dG*dT*d[5mC]*dT*dG*d[5mC]*dT*dT*dT*eA*e[5mC]*eA*e[5mC]*e[5mC]) [compound 326358]
% Inhibition of apolipoprotein B mRNA ([3]; 10 nM, 24 hours): 35% | % Inhibition of apolipoprotein B mRNA ([3]; 10 nM, 48 hours): 85% | % Inhibition of apolipoprotein B mRNA ([3]; 50 nM, 24 hours): 66% | % Inhibition of apolipoprotein B mRNA ([3]; 50 nM, 48 hours): 88% | % Inhibition of apolipoprotein B mRNA ([3]; 150 nM, 24 hours): 61% | % Inhibition of apolipoprotein B mRNA ([3]; 150 nM, 48 hours): 82% | % Inhibition of apolipoprotein B mRNA ([3]; 300 nM, 24 hours): 64% | % Inhibition of apolipoprotein B mRNA ([3]; 300 nM, 48 hours): 87% | % Reduction in secreted apolipoprotein B protein (apolipoprotein B protein; 150 nM, 24 hours): 21% | % Reduction in secreted apolipoprotein B protein (apolipoprotein B protein; 150 nM, 48 hours): 29% | % Reduction in secreted apolipoprotein B protein (apolipoprotein B protein; 300 nM, 24 hours): 17% | % Reduction in secreted apolipoprotein B protein (apolipoprotein B protein; 300 nM, 48 hours): 35%

AGATTACCAGCCATATGCAG (gapmer: ten 2'-deoxy gap, five-nucleotide wings, wing chemistry not given here) [ISIS 315089]
inhibition of apolipoprotein B mRNA expression ([3]; Cynomolgous monkey primary hepatocytes, 10, 50, 150 or 300 nM, 24 hours): in a dose-dependent manner | secretion of apolipoprotein B protein (ELISA) (apolipoprotein B protein; 150 nM): decrease | secretion of apolipoprotein B protein (ELISA) (apolipoprotein B protein; 50 and 150 nM (statement after Table 49)): decrease
